Results published in patent publication US20120164230A1, “Soluble Nanoparticles as Delivery Systems for Prodrugs” (priority 2007, published 2012).

Assays:
NTera-2 cells [1] = assay: MTT cell proliferation / cytotoxicity assay; format: cell-based, human
Protocol: In order to evaluate the feasibility of this method for delivering a toxic dose of platinum, cytotoxicity assays of SWNT-Pt(IV) were conducted using the testicular carcinoma cell line NTera-2. Example 3 below describes these experiments, in which the MTT assay was used to determine cell viability following treatment for four days with either the free platinum(IV) complex 2 or with the SWNT-tethered analog (FIG. 2). Compared to cis-[Pt(NH3)2Cl2] (IC50=0.05 μM) the cytotoxicity of the asymmetrically substituted platinum(IV) compound 2 is insignificant (IC50>>0.5 mM). […] Without wishing to be bound to any particular theory, it is thought that this increase is due to the two-fold increase in uptake of Pt relative to free cisplatin.
Cell Culture. Cells from the human testicular cancer line NTera-2 were incubated at 37° C. in 5% CO2 and grown in DMEM (Dulbecco's Modified Eagle's Medium) medium supplemented with 10% fetal bovine serum and 1% penicillin/streptomycin. Cells were passaged every 3 to 4 days and reseeded from frozen stocks after reaching passage number 20.
Cell Proliferation Assay. Ntera-2cells were seeded into 96 well plates at a confluence of 1000 cells per well and incubated for 24 h. The cells were then treated with either cisplatin, compound 1, compound 2, or SWNT-Pt(IV) and incubated for 96 h. The cells were then treated with 20 μL of 3-(4,5-dimethylthiazol-2-yl)-2,5-diphenyltetrazolium bromide (MTT) (5 mg/mL in PBS) and incubated for 5 h. The medium was removed, the cells were lysed with 100 μL of DMSO, and the absorbance of the purple formazan was recorded at 550 nm. The results are presented in FIG. 2, FIG. 7, FIG. 8, and FIG. 9. […] (cisplatin).

[2] = Cyclic voltammetry, reduction potential; format: physicochemical; conditions: vs Ag/AgCl; for reduction potential (reduction peak) extrapolated to 0.0 mV s^-1 scan rate: pH 6.0, 0.1 M KCl phosphate buffer; for reduction potential extrapolated to 0.0 mV s^-1 scan rate: pH 7.4, 0.1 M KCl phosphate buffer
Protocol: Each platinum complex was dissolved to a final concentration of 2.0 mM in 0.1 M aqueous KCl buffered with phosphate to either pH 6.0 or 7.4. Cyclic voltammetric (CV) measurements were performed with a model 263 EG&G Princeton Applied Research electrochemical analyzer at varying scan rates of 20-100 mV s^−1. The solvent was degassed by several freeze-pump-thaw cycles and measurements were taken under an atmosphere of argon. The working electrode was made of glassy carbon, the reference electrode was Ag/AgCl, and the counter electrode was a platinum wire. Reported potentials are extrapolated to 0.0 mV s^−1 scan rates to account for the irreversible behavior of the reduction processes.^7

NTera-2 cells [3] = assay: Platinum concentration of cell extracts (cytosolic and nuclear fractions) by AAS; format: cell-based, human; conditions: 1 μM platinum, 3 h incubation
Protocol: In order to investigate the mechanism by which the SWNTs transport Pt(IV) compounds into cells and release them once inside we devised a strategy to track their intracellular location.
Cell Extract Preparation and Analysis. NTera-2 cells were grown to >90% confluence in 175 cm^2 flasks. These cells were treated separately with 1 μM concentrations of cisplatin, c,c,t-[Pt(NH3)2Cl2(OEt)(O2CCH2CH2CO2H)], and SWNT-Pt(IV) and subsequently incubated for three h at 37° C. The cells were washed thrice with PBS and released by trypsinization into PBS. The cell solutions were centrifuged at 800×g for 10 min and the cell pellets resuspended in 100 μL of ice-cold lysis buffer (1.0 mM DTT (dithiothreitol), 1.0 mM PMSF (phenylmethanesulphonylfluoride), 10 mM KCl, 10 mM MgCl2, pH 7.5) for 15 min. The cells were centrifuged again and the pellets resuspended in 40 μL of ice-cold lysis buffer. The cell membranes were lysed by 10 strokes of a 28 ga. syringe. The resulting suspension was centrifuged at 11,000×g for 20 min and the supernatant was collected as the cytosolic fraction of the cells. […] The lysate was shaken at 1000 rpm for 45 min at […] and then centrifuged at 20,000×g for 10 min at 4° C. The supernatant was collected as the nuclear fraction. The platinum concentration of all fractions was determined by AAS. The protein concentration for each fraction was determined by the bicinchoninic acid (BCA) assay and the total platinum concentration was expressed as nanograms of platinum per microgram of protein (Table 1).

## CC[O][Pt]([NH2])([NH2])([OH])([Cl])[Cl] [Compound 1, c,c,t-[Pt(NH3)2Cl2(OH)(OEt)]]
NTera-2 cells [1]
  cytotoxicity (in words): only toxic to cells in micromolar concentrations
[2]
  reduction potential (reduction peak) extrapolated to 0.0 mV s^-1 scan rate: −0.499 V
  reduction potential extrapolated to 0.0 mV s^-1 scan rate: −0.604 V

## CC[O][Pt]([NH2])([NH2])([Cl])([Cl])[O]C(=O)CCC(=O)O [Compound 2, c,c,t-[Pt(NH3)2Cl2(OEt)(O2CCH2CH2CO2H)]]
NTera-2 cells [1]
  IC50: > 0.5 µM
  cytotoxicity (in words): nearly nontoxic
NTera-2 cells [3]
  Platinum concentration of cell extracts, Cytosolic: 3 Pt(ng)/protein(mg)
  Platinum concentration of cell extracts, Nuclear: 6 Pt(ng)/protein(mg)
[2]
  reduction potential (reduction peak) extrapolated to 0.0 mV s^-1 scan rate: −0.623 V
  reduction potential extrapolated to 0.0 mV s^-1 scan rate: −0.724 V

## cis-[Pt(NH3)2Cl2] [reference compound]
NTera-2 cells [1]
  IC50: 0.05 µM
  cytotoxicity (in words): significantly more toxic
NTera-2 cells [3]
  Platinum concentration of cell extracts, Cytosolic: 11 Pt(ng)/protein(mg)
  Platinum concentration of cell extracts, Nuclear: 14 Pt(ng)/protein(mg)
